Source: patent publication US10086028B2, “Method for treating vascular inflammation, improving skin beauty and improving male sexual function using ginseng berry” (AMOREPACIFIC CORPORATION, priority 2007, dated 2018)

What was measured:
[1] = test system: Macrophages (Raw 264.7 cells); assay: Inhibition of LPS-induced NO generation in macrophages (Griess reaction); assay type: cell-based; conditions: LPS 1 μg/mL
Protocol: Effect of inhibiting LPS-induced NO generation in macrophages was tested in order to confirm the effect of inhibiting vascular inflammation of the ginseng berry extract.
Macrophages (Raw 264.7 cells) were cultured in a medium containing 10% serum under the condition of 5% CO2. After culturing on a 96-well plate incubator to a concentration of 2×10^5 cells/well and stimulating with LPS (1 μg/mL), the cells were treated with the ginseng berry extract of Example 1 (50 μg/mL and 100 μg/mL), the ginseng berry saponin concentrate of Example 2 (100 μg/mL), the ginseng root extract of Comparative Example 1 (100 μg/mL) or ginsenosides Rg1, Rg2, Rh1 or Re (10 μg/mL and 20 μg/mL), respectively. After keeping the treated cells at 37° C. for 1 hour, the degree of NO generation was measured to compare the effect of inhibiting LPS-induced NO generation of the test substances. NO generation (μM) was measured using the Griess reaction [Minghetti, L. et al., 1991, Glia 19. 152-160]. Measurement was made twice and the mean value was calculated.

[2] = test system: matrix metalloproteinase I (MMP-1); assay: Inhibition of UVB-induced MMP-1 expression in human fibroblasts (ELISA); assay type: cell-based; conditions: UVB 40 mJ/cm^2, 2nd day, relative to UV control; sample 10 μg/mL
Protocol: Human fibroblasts were cultured on a 12-well plate incubator to a concentration of 10^5 cells/well. Then, after irradiating UVB at 40 mJ/cm^2, the medium was replaced by one including the ginseng berry extract of Example 1 (1 μg/mL and 10 μg/mL), the ginseng berry saponin concentrate of Example 2 (10 μg/mL), the ginseng root extract of Comparative Example 1 (10 μg/mL) or ginsenosides Rg1, Rg2, Rh1 or Re (10 μg/mL). 10 ng/mL TGF-β was used as a positive control substance. On the 2nd day of culturing, the cells were harvested and the quantity of produced matrix metalloproteinase I (MMP-1) was analyzed using ELISA. The result was calculated as a relative value with respect to the control group, which was irradiated with UV without treating with a test substance.

[3] = test system: Tumor Necrosis Factor α (TNF-α); assay: Inhibition of UV-induced TNF-α biosynthesis in human keratinocytes (ELISA); assay type: cell-based; conditions: UVB 30 mJ/cm^2, 6-24 hours, relative to UV control; sample 10 μg/mL
Protocol: Human keratinocytes were cultured on a 12-well plate incubator to a concentration of 10^5 cells/well. Then, after irradiating UVB at 30 mJ/cm^2, the medium was replaced by one including the ginseng berry extract of Example 1 (0.1 μg/mL, 1 μg/mL and 10 μg/mL), the ginseng berry saponin concentrate of Example 2 (10 μg/mL), the ginseng root extract of Comparative Example 1 (0.1 μg/mL, 1 μg/mL and 10 μg/mL) or ginsenosides Rg1, Rg2, Rh1 or Re (10 μg/mL). After 6-24 hours of culturing, the cells were harvested and the quantity of TNF-α was analyzed using ELISA (Pharmingen 555212). The result was calculated as a relative value with respect to the control group, which was irradiated with UV without treating with a test substance.

TNF-α = assay: LPS-induced inflammatory factor TNF-α in mouse blood; assay type: in vivo; conditions: mouse blood about 12 h after LPS, intra-abdominal
Protocol: Based on the experimental result in the cell level, the effect of controlling vascular inflammation of the ginseng berry extract was tested in an animal model. Mice were grouped into a non-treated group, an LPS-induced group, a group treated with the ginseng berry extract of Example 1 (50 μg/mL and 100 μg/mL), a group treated with the ginseng berry saponin concentrate of Example 2 (100 μg/mL), a group treated with the ginseng root extract of Comparative Example 1 (100 μg/mL) and groups treated with ginsenosides Rg1, Rg2, Rh1 or Re (10 μg/mL and 20 μg/mL), with 5 mice per each group.
100 mg of each test substance per kg body weight of mouse, diluted in saline solution (0.9% NaCl), was intra-abdominally injected three times from day 1 through day 3. 2 hours after the injection on day 3, LPS diluted in saline solution (1 μg/mL) was injected intra-abdominally at a concentration of about 4 mg per kg body weight of mouse to induce inflammation by inflammatory factors (PGE2, TNF-α and IL1-β). After approximately 12 hours, the abdomen of the mouse was cut open, and blood was taken from the artery of the heart and stored at […]. The blood was kept at room temperature for 30 minutes and, after centrifuge at 4° C. and 3,000 rpm for 10 minutes, the supernatant was kept at −20° C. Then, the inflammatory factors PGE2, TNF-α and IL1-β were identified by western blotting. Measurement was made twice and the mean value was calculated. The result is shown in Table 4 and FIG. 9 (PGE2 (ng/mL)), Table 5 and FIG. 10 (TNF-α (ng/mL)), and Table 6 and FIG. 11 (IL1-β (pg/mL)).

[4] = test system: human HaCaT keratinocytes; assay: Antioxidative effect: removal of UV-generated ROS in HaCaT keratinocytes; assay type: cell-based; conditions: ROS generated by UV in HaCaT; sample 10 μg/mL (Trolox given as (10))
From the text: Antioxidative effect of the ginseng berry extract was investigated by comparing the ability of removing reactive oxygen species (ROS) generated in human HaCaT keratinocytes by ultraviolet (UV) radiation.

Row | SMILES | NO generation relative to negative control (%) ([1]; sample 10 μg/mL) | NO generation, Mean ± standard deviation ([1]; sample 10 μg/mL) [µM] | NO generation, Result 1 ([1]; sample 10 μg/mL) [µM] | NO generation, Result 2 ([1]; sample 10 μg/mL) [µM] | NO generation relative to negative control (%) ([1]; sample 20 μg/mL) | NO generation, Mean ± standard deviation ([1]; sample 20 μg/mL) [µM] | NO generation, Result 1 ([1]; sample 20 μg/mL) [µM] | NO generation, Result 2 ([1]; sample 20 μg/mL) [µM] | MMP-1 expression (%) [2] [%] | TNF-α biosynthesis (%) [3] [%] | TNF-α, Mean ± standard deviation (TNF-α; group (10 μg/mL)) [ng/mL] | TNF-α, Result 1 (TNF-α; group (10 μg/mL)) [ng/mL] | TNF-α, Result 2 (TNF-α; group (10 μg/mL)) [ng/mL] | TNF-α, Mean ± standard deviation (TNF-α; group (20 μg/mL)) [ng/mL] | TNF-α, Result 1 (TNF-α; group (20 μg/mL)) [ng/mL] | TNF-α, Result 2 (TNF-α; group (20 μg/mL)) [ng/mL] | Antioxidative effect (%) [4] [%]
1 | CC(C)=CCC[C@](C)(O[C@@H]1O[C@H](CO)[C@@H](O)[C@H](O)[C@H]1O)[C@H]1CC[C@]2(C)[C@@H]1[C@H](O)C[C@@H]1[C@@]3(C)CC[C@H](O)C(C)(C)[C@@H]3[C@@H](O[C@@H]3O[C@H](CO)[C@@H](O)[C@H](O)[C@H]3O)C[C@]12C [Rg1] | 101.2 | 16.83 ± 0.63 | 16.38 | 17.27 | 99.3 | 16.50 ± 1.06 | 15.75 | 17.25 | 98 | 98 | 38.60 ± 2.69 | 36.7 | 40.5 | 34.55 ± 2.90 | 36.6 | 32.5 | 2
2 | CC(C)=CCC[C@](C)(O)[C@H]1CC[C@]2(C)[C@@H]1[C@H](O)C[C@@H]1[C@@]3(C)CC[C@H](O)C(C)(C)[C@@H]3[C@@H](O[C@@H]3O[C@H](CO)[C@@H](O)[C@H](O)[C@H]3O[C@@H]3O[C@@H](C)[C@H](O)[C@@H](O)[C@H]3O)C[C@]12C [Rg2] | 100.3 | 16.68 ± 0.45 | 17.00 | 16.36 | 97.4 | 16.19 ± 0.01 | 16.18 | 16.19 | 90 | 101 | 35.05 ± 2.47 | 33.3 | 36.8 | 31.60 ± 1.98 | 30.2 | 33 | 1
3 | CC(C)=CCC[C@](C)(O)[C@H]1CC[C@]2(C)[C@@H]1[C@H](O)C[C@@H]1[C@@]3(C)CC[C@H](O)C(C)(C)[C@@H]3[C@@H](O[C@@H]3O[C@H](CO)[C@@H](O)[C@H](O)[C@H]3O)C[C@]12C [Rh1] | 89.4 | 14.86 ± 0.07 | 14.92 | 14.81 | 75.1 | 12.48 ± 0.26 | 12.29 | 12.66 | 90 | 98 | 32.55 ± 5.16 | 28.9 | 36.2 | 32.15 ± 3.32 | 29.8 | 34.5 | 3
